Values of other authors in US20100034838A1, “Transdermal Administration of Active Agents for Systemic Effect” (priority 2005, published 2010).

## CN1CCCC1c1cccnc1 (centres unmarked) [nicotine]
Nicotine patches, approximately 4-6 hours after adhesion of a medicinal patch to the skin
  nicotine levels in the blood: 10 to 15 ng/mL
Smoking a cigarette, approximately 5 minutes after smoking is commenced
  blood nicotine peak: about 25 ng/ml
